Counter-ions that a name gives are not always drawn. Like-named read-outs stand apart in the source and are kept apart here.
Key:
[1] = target: T1, Alpha2D adrenergic receptor (Rattus norvegicus, UniProt P22909); test: Alpha2D adrenergic receptor binding assay (3H-paraaminoclonidine, rat cortex synaptic membranes); design: species or system Wistar rats
T1 construct: aliquots of the synaptic membrane fraction; from tissue; host or cells: rat cerebral cortex, synaptic membrane fraction
T1 sequence (P22909 1-465): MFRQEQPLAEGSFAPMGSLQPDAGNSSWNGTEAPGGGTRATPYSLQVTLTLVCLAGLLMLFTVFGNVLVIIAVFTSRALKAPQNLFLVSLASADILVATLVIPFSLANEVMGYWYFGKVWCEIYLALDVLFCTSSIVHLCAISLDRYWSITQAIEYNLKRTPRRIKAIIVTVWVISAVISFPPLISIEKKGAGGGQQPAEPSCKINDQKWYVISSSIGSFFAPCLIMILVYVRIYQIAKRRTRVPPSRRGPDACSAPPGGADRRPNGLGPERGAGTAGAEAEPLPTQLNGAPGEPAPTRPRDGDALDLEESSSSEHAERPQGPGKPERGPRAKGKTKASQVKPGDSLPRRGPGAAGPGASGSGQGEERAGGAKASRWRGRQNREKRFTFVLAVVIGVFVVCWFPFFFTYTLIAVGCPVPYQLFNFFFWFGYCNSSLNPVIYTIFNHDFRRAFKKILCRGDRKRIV
Protocol: Alpha2D adrenergic receptor binding assay
Male, Wistar rats (150-250 g, VAF, Charles River, Kingston, N.Y.) are sacrificed by cervical dislocation and their brains removed and placed immediately in ice cold HEPES buffered sucrose. The cortex is dissected out and homogenized in 20 volumes of HEPES sucrose in a Teflon®-glass homogenizer. The homogenate is centrifuged at 1000 g for 10 min, and the resulting supernatant centrifuged at 42,000 g for 10 min. The resulting pellet is resuspended in 30 volumes of 3 mM potassium phosphate buffer, pH 7.5, preincubated at 25° C. for 30 min and recentrifuged. The resulting pellet is resuspended as described above and used for the receptor binding assay. Incubation is performed in test tubes containing phosphate buffer, 2.5 mM MgCl2, aliquots of the synaptic membrane fraction, the ligand ^3 H-paraaminoclonidine and test drug at 25°0 C. for 20 min. The incubation is terminated by filtration of the tube contents through glass fiber filter sheets. Following washing of the sheets with 10 mM HEPES buffer, the adhering radioactivity is quantified by liquid scintillation spectrometry.
Binding of the test drug to the receptor is determined by comparing the amount of radiolabeled ligand bound in control tubes without drug to the amount of radiolabeled ligand bound in the presence of the drug. Dose-response data are analyzed with LIGAND, a nonlinear curve fitting program designed specifically for the analysis of ligand binding data. This assay is described by Simmons, R. M. A., and Jones, D. J., Binding of [^3 H-]prazosin and [^3 H-]p-aminoclonidine to α-Adrenoceptors in Rat Spinal Cord, Brain Research 445:338-349, 1988.

[2] = system: acetylcholine bromide-induced abdominal constriction response; test: Mouse Acetylcholine Bromide-Induced Abdominal Constriction Assay; format: in vivo; conditions: p.o., 30 min before acetylcholine bromide 5.5 mg/kg i.p.; for ED50: po, 0.5 h, dose producing 50% analgesia; for inhibition at 30 mg/kg: @30 mpk
Protocol: Mouse Acetylcholine Bromide-Induced Abdominal Constriction Assay
The mouse acetylcholine bromide-induced abdominal constriction assay, as described by Collier et al. in Brit. J. Pharmacol. Chem. Ther., 32:295-310, 1968, with minor modifications was used to assess analgesic potency of the compounds herein. The test drugs or appropriate vehicle were administered orally (p.o.) and 30 minutes later the animal received an intraperitoneal (i.p.) injection of 5.5 mg/kg acetylcholine bromide (Matheson, Coleman and Bell, East Rutherford, N.J.). The mice were then placed in groups of three into glass bell jars and observed for a ten minute observation period for the occurrence of an abdominal constriction response (defined as a wave of constriction and elongation passing caudally along the abdominal wall, accompanied by a twisting of the trunk and followed by extension of the hind limbs). The percent inhibition of this response to a nociceptive stimulus (equated to % analgesia) was calculated as follows: The % Inhibition of response, i.e., % analgesia is equal to the difference between the number of control animals response and the number of drug-treated animals response times 100 divided by the number of control animals responding.
At least 15 animals were used for control and in each of the drug treated groups. At least three doses were used to determine each dose response curve and ED50 (that dose which would produce 50% analgesia). The ED50 values and their 95% fiducial limits were determined by a computer assisted probit analysis.

α2-adrenoceptor [3] = conditions: cited from earlier work; for hypotensive effect: animals and humans, magnitude relatively insignificant
α2-adrenoceptor [4] = conditions: non-opiate mechanism, without opiate liability; cited from earlier work
[5] = 3H-paraaminoclonidine, rat cortex, 25° C, 20 min, read-out: Ki

Row | SMILES | Ki [1, 5] | ED50 [2] | inhibition at 30 mg/kg [2] | Ki [1] | further results
1 | Cc1sccc1C(C)c1c[nH]cn1 (stereo not shown) | 2.3 nM | 1.6 mg/kg |  |  | 
2 | CC(c1ccsc1)c1c[nH]cn1 (stereo not shown) | 2.5 nM |  | 100% |  | 
3 | Cc1csc(C)c1C(C)c1c[nH]cn1 (stereo not shown) | 33.5 nM | 7.8 mg/kg |  |  | 
4 | CCc1sccc1C(C)c1c[nH]cn1 (stereo not shown) | 1.1 nM |  | 100% |  | 
5 | Cc1cc(Cc2c[nH]cn2)c(C)s1.O=C(O)/C=C/C(=O)O [Cp-5, 4-[(2,5-dimethylthien-3-yl)methyl]-1H-imidazole Fumarate] |  | 1.3 mg/kg |  | 0.69 nM | 
6 | CCc1cscc1C(C)c1c[nH]cn1 (stereo not shown) [Cp-10, 4-[1-(4-ethylthien-3-yl)ethyl]-1H-imidazole fumarate] |  |  | 100% | 0.28 nM | 
7 | Cc1cscc1Cc1c[nH]cn1.O=C(O)/C=C/C(=O)O [Cp-2, 4-[(4-Methylthien-3-yl)methyl]-1H-imidazole Fumarate] |  | 0.4 mg/kg |  | 0.47 nM | 
8 | CCC(c1c[nH]cn1)c1cscc1C (stereo not shown) [Cp-4, 4-[1-(4-Methylthien-3-yl)propyl]-1H-imidazole Fumarate] |  |  | 100% | 0.97 nM | 
9 | CCc1sccc1Cc1c[nH]cn1.O=C(O)/C=C/C(=O)O [Cp-7, 4-[(2-ethylthien-3-yl)methyl]-1H-imidazole fumarate] |  | 0.4 mg/kg |  | 0.07 nM | 
10 | Cc1cc(C(C)c2c[nH]cn2)c(C)s1 (stereo not shown) | 6.1 nM |  | 100% |  | 
11 | Cc1cccc(C(C)c2cnc[nH]2)c1C (racemic) [Medetomidine] |  |  |  |  | hypotensive effect (α2-adrenoceptor [3]): hypotensive in animals and in humans, but the magnitude of this cardiovascular effect is relatively insignificant
12 | Cc1sccc1Cc1c[nH]cn1 [Cp-1, 4-[(2-Methylthien-3-yl)methyl]-1H-imidazole Fumarate] |  |  | 100% | 0.44 nM | 
13 | CCc1cc(Cc2c[nH]cn2)c(CC)s1.O=C(O)/C=C/C(=O)O [Cp-6, 4-[(2,5-diethylthien-3-yl)methyl]-1H-imidazole Fumarate] |  | 3.7 mg/kg |  | 0.4 nM | 
14 | c1nc(Cc2ccsc2)c[nH]1 | 3.1 nM | 6.4 mg/kg |  |  | 
15 | CCc1cc(C(C)c2c[nH]cn2)c(CC)s1 (stereo not shown) | 11.4 nM |  | 67% |  | 
16 | C=C(c1c[nH]cn1)c1csc(Br)c1Br | 0.98 nM |  | 27% |  | 
17 | Clc1cccc(Cl)c1NC1=NCCN1 [Clonidine] |  |  |  |  | other behavioral and physiological effects (α2-adrenoceptor [3]; in vivo): sedation and cardiovascular effects; analgesia (α2-adrenoceptor [4]): produce analgesia through a non-opiate mechanism
18 | Cc1csc(C)c1Cc1c[nH]cn1 [Cp-8, 4-[(2,4-Dimethylthien-3-yl)methyl]-1H-imidazole Fumarate] |  |  | 100% | 0.1 nM | 
19 | Cc1cscc1C(C)c1c[nH]cn1.O=C(O)/C=C/C(=O)O (stereo not shown) [Cp-3, 4-[1-(4-Methylthien-3-yl)ethyl]-1H-imidazole Fumarate] |  | 0.4 mg/kg |  | 0.39 nM | 
20 | CCc1cscc1Cc1c[nH]cn1 [Cp-9, 4-[(4-ethylthien-3-yl)methyl]-1H-imidazole fumarate] |  |  | 100% | 0.29 nM | 
21 | Cc1cccc(Cc2c[nH]cn2)c1C [detomidine] |  |  |  |  | hypotensive effect (α2-adrenoceptor [3]): hypotensive in animals and in humans, but the magnitude of this cardiovascular effect is relatively insignificant

Reference: patent US5750720A, “4-[(thien-3-yl)methyl]-imidazole analgesics” (Ortho Pharmaceutical Corporation, priority 1996, dated 1998)
